Here are results for one substance from publication PMC6716272, “In Vivo and In Vitro Analyses of Novel Peptidomimetic Disruptors for the Serotonin 5-HT2C Receptor Interaction With Phosphatase and Tensin Homolog” (Frontiers in Pharmacology, 2019).

A value given as a limit tells only on which side of the number the result lay.

The subject of test [1] is WAY163909–saline-trained rats. Put plainly: Two-lever drug discrimination, WAY163909 (0.75 mg/kg) vs saline. The test is classed as in vivo, rat. The method, then:
(§1) Experimentally naïve male Sprague-Dawley rats (n = 43; Envigo, Inc.) weighing 300–325 g at the beginning of the experiment were housed two per cage in a temperature- (21–23°C) and humidity- (45–50%) controlled environment; lighting was maintained under a 12-h light–dark cycle (0700–1900 h). Rats were maintained at 80–90% of their free-feeding weights by restricting access to water. Rats received water during daily training sessions (5–6 ml/rat/session), in the afternoon several hours after training (20 min), and over the weekend (36 h). Experiments were conducted during the light phase of the light–dark cycle (between 0900 and 1200 h) and were carried out in accordance with the National Institutes of Health Guide for the Care and Use of Laboratory Animals and with the approval of the Institutional Animal Care and Use Committee at University of Texas Medical Branch.
(§2) The procedures were conducted in commercially available two-lever operant chambers (Med Associates, St. Albans, VT). Each chamber was equipped with a water-filled dispenser mounted equidistantly between two retractable response levers on the wall and housed in a light- and soundproof cubicle. Illumination came from a 28-V house light; ventilation and masking noise were provided by a ventilation fan in the right-side wall. A computer with Med-PC IV software was used to run programs and record all experimental events.
(§3) Standard two-lever, water-reinforced drug discrimination procedures were used ([Appel and Cunningham, 1986]; [Callahan and Cunningham, 1995]; [Colpaert, 1999]). Three cohorts (n = 13–16/cohort) were trained to discriminate an injection of a training drug from saline (1.0 ml/kg, i.p.) administered 15 min before start of daily (Monday–Friday) training sessions. In one cohort (n = 14), rats were trained to discriminate the training drug lorcaserin (0.75 mg/kg, 1.0 ml/kg, i.p.) from saline. In a second cohort (n = 13), rats were trained to discriminate the training drug WAY163909 (0.75 mg/kg, 1.0 ml/kg, i.p.) from saline. In the third cohort, rats (n = 16) were trained to discriminate the training drug cocaine (5 mg/kg, 1.0 ml/kg, i.p.) from saline. Two rats in the lorcaserin–saline cohort were excluded from the present study due to failure to maintain the discrimination. Rats in the WAY163909–saline cohort also participated in additional studies ([Wild et al., 2018]); the WAY163909 dose–response curve was reevaluated between studies; a washout period was allowed, and no carryover effects were observed.
(§4) During this phase, only the stimulus-appropriate (drug or saline) lever was present. Training began under a fixed ratio 1 (FR 1) schedule of water reinforcement, and the FR requirement was incremented until all animals were responding reliably under an FR 20 schedule for each experimental condition. For half of the rats, left lever responses were reinforced after training drug administration, whereas right lever responses were reinforced after saline administration; conditions were reversed for the remaining animals. During this phase of training, drug and saline were administered irregularly with the restriction that neither condition prevailed for more than three consecutive sessions.
(§5) After responding stabilized, both levers were presented simultaneously during 15-min training sessions. The rats were required to respond on the stimulus-appropriate (correct) lever to obtain water reinforcement. There were no programmed consequences for responding on the incorrect lever. This phase of training continued until the performance of all rats attained criterion (defined as mean accuracies of at least 80% stimulus-appropriate responding for 10 consecutive sessions).
(§6) Test sessions were initiated and conducted once or twice per week following attainment of criterion. Training sessions were run during the intervening days to maintain discrimination accuracy. […]

The test system of test [2] is lorcaserin–saline-trained rats. Description: Two-lever drug discrimination, lorcaserin (0.75 mg/kg) vs saline. The test is classed as in vivo, rat. The method, then:
as §1, §2, §3, §4, §5, §6

The test system of test [3] is cocaine–saline-trained rats. Put plainly: Two-lever drug discrimination, cocaine (5 mg/kg) vs saline. The test is classed as in vivo, rat. The procedure:
as §1, §2, §3, §4, §5, §6

For test [4] the following is noted: effect mimicked by Ro-600175 and reversed by SB242084; ref Ji et al., 2006; cited from earlier work. An excerpt: (§7) Agonist binding to the 5-HT2CR results in dynamic changes in receptor conformation and induction of a variety of intracellular signaling pathways ([Berg et al., 1994]; [McGrew et al., 2002]; [Werry et al., 2005]; [Labasque et al., 2008]). Best characterized is coupling of the 5-HT2CR to Gαq/11 proteins to activate phospholipase Cβ (PLCβ), resulting in increased intracellular calcium (Cai ^2+) release, among various other signaling outcomes ([Millan et al., 2008]). One approach to selectively target the 5-HT2CR signaling is through protein–protein interactions that are selective for 5-HT2CR ove ...

The next test deals with rats. The conditions noted are these: TAT-r3L4F 0.1 µmol/kg; ref Cunningham et al., 2011; Anastasio et al., 2013; cited from earlier work.
Excerpt: as §7

Regarding “Ac-YGRKKRRPNPDQKPRRKKKEKR-NH2 [TAT-r3L4F, rat 5-HT2CR third-loop peptide r3L4F conjugated to TAT at the N terminus]”, in test [1] (combination test, TAT-r3L4F 1, 2 µmol/kg i.p.), the “response rate in combination with WAY163909 (0.5 mg/kg)” value is recorded as “no change in response rates”. For the same substance, the “drug-lever responding in combination with WAY163909 (0.5 mg/kg)” value in test [1] (combination test, TAT-r3L4F 1, 2 µmol/kg i.p., p < 0.05) is given as “enhanced drug-lever responding”. Further, the “response rate in substitution test” value in test [1] (lorcaserin 1 mg/kg (vs saline), TAT-r3L4F 1, 2 µmol/kg (vs previous WAY163909 maintenance session)) is reported as “significantly higher”; in test [2] (vs previous lorcaserin maintenance session, WAY163909 0.75 mg/kg, TAT-r3L4F 2 µmol/kg (trend for 1 µmol/kg)), “significantly higher”. Moreover, the drug-like responding in test [1] (substitution test, TAT-r3L4F 1, 2 µmol/kg i.p.) is listed as under 10%; in test [2] (substitution test, i.p., TAT-r3L4F 1, 2 µmol/kg, peptide 7 1, 2, 5 µmol/kg (data not shown)), under 10%. Also, the “drug-lever responding in combination with lorcaserin (0.5 mg/kg)” value in test [2] (combination test, i.p., TAT-r3L4F 2 µmol/kg (p < 0.05), peptide 7 2, 5 µmol/kg) is reported as “enhanced drug-lever responding”. Also, the “response rate in combination with lorcaserin (0.5 mg/kg)” value in test [2] (combination test, i.p., TAT-r3L4F 2 µmol/kg, peptide 7 2, 5 µmol/kg) is reported as “no change in response rates”. Moreover, in test [3] (TAT-r3L4F 1, 2 µmol/kg i.p. 45 min before test), the “stimulus effects of cocaine (2.5 mg/kg) and response rate, TAT-r3L4F in the absence of lorcaserin” value is recorded as “did not alter the stimulus effects of cocaine or the associated response rate”. Also, the “cocaine-appropriate responding, TAT-r3L4F plus lorcaserin (0.5 mg/kg) before cocaine (2.5 mg/kg)” value in test [3] (TAT-r3L4F 1, 2 µmol/kg, p < 0.05 vs cocaine alone, not statistically different from lorcaserin alone plus cocaine) was “significantly reduced cocaine-appropriate responding”. Besides, the “lever responding in substitution test (low-dose series)” value in test [3] (TAT-r3L4F alone 1, 2 µmol/kg, lorcaserin alone 0.5 mg/kg, data not shown) was “saline-appropriate responding”. For the same substance, in test [3] (lorcaserin alone 0.5 mg/kg, or TAT-r3L4F 1, 2 µmol/kg plus lorcaserin 0.5 mg/kg, p < 0.05), the “response rates associated with cocaine (2.5 mg/kg)” value is “significantly suppressed the response rates”. Besides, the “response rate in substitution test (low-dose series)” value in test [3] (vs previous cocaine maintenance session, TAT-r3L4F alone 1, 2 µmol/kg, lorcaserin alone 0.5 mg/kg, data not shown) is “significant reduction in response rates”. The “∆9-tetrahydrocannabinol-induced conditioned place preference” value in test [4] is “blocks”. Further, the “efficacy of a subeffective dose of WAY163909 to suppress motor activity and impulsive action” value with rats is “enhances the efficacy”. Also, the “motor activity, peptide alone” value in the test with rats is recorded as “does not suppress motor activity on its own”.
